These results are taken from ChEMBL document CHEMBL1201862, “PubChem BioAssay data set” (2004).

Molecules are shown by their SMILES.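 Five concentrations, 48 hours, 96-well plates. Here, GI50 denotes the concentration required for 50% inhibition of growth.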 The source made the active and inactive calls. Rule as the data show it: active = GI50 up to about 1.1 µM and inactive = higher.

Test systems include A498; CCRF-CEM; HCT-15; HL-60; MOLT-4; NCI-H460; OVCAR-8; SF-539; SK-MEL-28; SK-OV-3; SNB-75; SR; Hs-578T; MCF7; MDA-MB-231; MDA-N; NCI/ADR-RES; PC-3; T47D.
What all share (assay): NCI tumour cell line growth inhibition, 48 h

Take `COc1cc(OC)c(C2CC=Cc3c(OC)cc(OC)c(OC)c32)cc1OC` (configuration not stated): the GI50 in the experiment with A498 was > 100 µM (inactive); in the experiment with CCRF-CEM, > 100 µM (inactive); with HCT-15, greater than 100 µM; in the experiment on HL-60, > 100 µM (inactive); with MOLT-4, > 100 µM (inactive); in the experiment with NCI-H460 it was > 100 µM (inactive). Moreover, the GI50 in the experiment on OVCAR-8, with SF-539, in the experiment with SK-MEL-28, with SK-OV-3, with SNB-75 and with SR was > 100 µM (inactive) throughout.
As to `CCCCCC/C(CC(=O)CCC(=O)NCCc1ccccc1)=N\Nc1ccc([N+](=O)[O-])cc1[N+](=O)[O-]`, the GI50 in the experiment with A498 is 79.8 µM (inactive); in the experiment with CCRF-CEM it was 22.1 µM (inactive); in the experiment on HCT-15 it was 69.3 µM; in the experiment on HL-60 it was 27.9 µM (inactive); in the experiment on MOLT-4, 21.4 µM (inactive); in the experiment with NCI-H460, > 100 µM (inactive). Further, the GI50 in the experiment on OVCAR-8 was 89.3 µM (inactive); in the experiment on SF-539, > 100 µM (inactive); with SK-MEL-28, > 100 µM (inactive); in the experiment with SK-OV-3, > 100 µM (inactive); in the experiment on SR it was 20.6 µM (inactive).
In the case of `C[C@H]1ON2CCC[C@@H]2[C@@H]1C(=O)N1C2CC3CCC2(CS1(=O)=O)C3(C)C` (some centres not stated), the GI50 in the experiment with A498 was > 100 µM (inactive); in the experiment with CCRF-CEM, > 100 µM (inactive); in the experiment with HCT-15 it was greater than 100 µM; with HL-60, 0.295 µM (active); in the experiment with Hs-578T, > 100 µM (inactive); with MCF7, > 100 µM (inactive). In addition, the GI50 in the experiment with MDA-MB-231, in the experiment on MDA-N, in the experiment on NCI-H460, in the experiment with NCI/ADR-RES, in the experiment with OVCAR-8 and in the experiment with PC-3 was > 100 µM (inactive) in each case. Moreover, the GI50 in the experiment with SF-539, in the experiment on SK-MEL-28, with SK-OV-3, in the experiment on SNB-75 and with T47D was > 100 µM (inactive) throughout.
For `O=C1C=CC(=O)c2cc(Sc3ccccc3)c(=O)c(Sc3ccccc3)cc21`, the GI50 is > 100 µM (inactive) with A498; 17.3 µM (inactive) in the experiment with CCRF-CEM; 50.6 µM with HCT-15; 10.6 µM (inactive) in the experiment with HL-60; 24 µM (inactive) in the experiment on MOLT-4; > 100 µM (inactive) in the experiment on NCI-H460. Moreover, the GI50 in the experiment with OVCAR-8 was 31.7 µM (inactive); with SF-539, > 100 µM (inactive); in the experiment with SK-MEL-28 it was 95.1 µM (inactive); in the experiment on SK-OV-3, 43.2 µM (inactive); in the experiment on SNB-75, 85.3 µM (inactive); in the experiment on SR it was 25.5 µM (inactive).
Take `COc1c(C(=O)c2ccc([N+](=O)[O-])cc2)cc(C(C)(C)C)cc1C(C)(C)C`: the GI50 in the experiment on A498 was 55.8 µM (inactive); with CCRF-CEM, 26.7 µM (inactive); in the experiment on HCT-15, 32 µM; in the experiment on HL-60, 13.9 µM (inactive); with MOLT-4 it was 16.4 µM (inactive); in the experiment with NCI-H460, 32.4 µM (inactive). Also, the GI50 is 52.7 µM (inactive) with OVCAR-8; 64.4 µM (inactive) in the experiment on SF-539; 22.8 µM (inactive) in the experiment on SK-MEL-28; > 100 µM (inactive) in the experiment on SK-OV-3; 74.5 µM (inactive) in the experiment on SNB-75; 17.1 µM (inactive) in the experiment on SR.
Consider `N#Cc1ccccc1NC(=O)C(=O)C(C(=O)c1ccncc1)C1OC(=O)c2ccccc21` (configuration not stated), for which the GI50 with A498 is > 100 µM (inactive); in the experiment on CCRF-CEM, 79.3 µM (inactive); with HCT-15, greater than 100 µM; in the experiment with HL-60, > 100 µM (inactive); in the experiment on NCI-H460, > 100 µM (inactive); in the experiment on OVCAR-8, > 100 µM (inactive). Besides, the GI50 in the experiment with SF-539, in the experiment with SK-MEL-28, in the experiment on SK-OV-3, in the experiment with SNB-75 and in the experiment with SR was > 100 µM (inactive) in each case.
As to `O=[N+]([O-])c1cccc(C2ON2C2CCCCC2)c1` (configuration not stated), the GI50 was 27.4 µM (inactive) in the experiment on A498; 4.88 µM (inactive) in the experiment on CCRF-CEM; 16.9 µM in the experiment on HCT-15; 17.5 µM (inactive) in the experiment on HL-60; 18.3 µM (inactive) in the experiment on MOLT-4; 17.5 µM (inactive) in the experiment with NCI-H460. Also, the GI50 in the experiment with OVCAR-8 was 17.6 µM (inactive); in the experiment on SF-539, 22.5 µM (inactive); with SK-MEL-28 it was 36.9 µM (inactive); with SK-OV-3, 35.2 µM (inactive); with SNB-75 it was 38.5 µM (inactive); in the experiment on SR, 2.4 µM (inactive).
Turning to `CCCCC1(C)C=C/C(=C2/C(=O)O/C(=C\C(=O)O)C2=O)O1` (configuration not stated), the GI50 with A498 was > 100 µM (inactive); in the experiment with CCRF-CEM, > 100 µM (inactive); in the experiment with HCT-15, greater than 100 µM; with HL-60 it was > 100 µM (inactive); in the experiment on MOLT-4 it was > 100 µM (inactive); in the experiment with NCI-H460, > 100 µM (inactive). Also, the GI50 in the experiment on OVCAR-8, in the experiment on SF-539, in the experiment with SK-MEL-28, in the experiment on SK-OV-3, in the experiment with SNB-75 and with SR was > 100 µM (inactive) each time.
Regarding `CC(Nc1ncc2c(n1)-c1ccccc1OC2)C(=O)O` (configuration not stated), the GI50 with CCRF-CEM is > 100 µM (inactive); in the experiment on HCT-15 it was 85.9 µM; with HL-60, 6.89 µM (inactive); in the experiment with Hs-578T, 82.4 µM (inactive); with MCF7, 42.9 µM (inactive); with MDA-MB-231, 92.7 µM (inactive). Moreover, the GI50 in the experiment with MDA-N, in the experiment on MOLT-4, in the experiment with NCI-H460, in the experiment with NCI/ADR-RES, in the experiment with OVCAR-8 and with PC-3 was > 100 µM (inactive) in each case. In addition, the GI50 in the experiment with SF-539 was > 100 µM (inactive); with SK-MEL-28, > 100 µM (inactive); with SK-OV-3 it was > 100 µM (inactive); in the experiment with SNB-75, 40.7 µM (inactive); with SR it was 48.5 µM (inactive).
Turning to `COC1=CC(C2c3cc4c(cc3[C@@H](Nc3ccc(F)cc3)C3COC(=O)[C@H]23)OCO4)=CC(=O)C1=O` (some centres not stated), the GI50 with A498 is 2.43 µM (inactive); in the experiment with CCRF-CEM it was 2.49 µM (inactive); in the experiment on HCT-15, 11.1 µM; in the experiment on HL-60, 2.11 µM (inactive); with MOLT-4 it was 0.524 µM (active); with NCI-H460 it was 0.608 µM (active). For the same compound, the GI50 in the experiment with OVCAR-8 is 10.1 µM (inactive); in the experiment on SF-539, 4.37 µM (inactive); in the experiment on SK-MEL-28, 19.2 µM (inactive); in the experiment on SK-OV-3 it was 4.46 µM (inactive); in the experiment with SNB-75, 6.81 µM (inactive); in the experiment with SR it was 0.506 µM (active).
Take `CN(C)c1ccc(-c2cc(O)c3cc4c(cc3n2)OCO4)cc1`: the GI50 was > 100 µM (inactive) in the experiment on A498; > 100 µM (inactive) in the experiment with CCRF-CEM; greater than 100 µM in the experiment on HCT-15; > 100 µM (inactive) in the experiment on HL-60; > 100 µM (inactive) in the experiment with MOLT-4; > 100 µM (inactive) in the experiment with NCI-H460. Besides, the GI50 in the experiment on OVCAR-8 was > 100 µM (inactive); in the experiment with SF-539, > 100 µM (inactive); in the experiment with SK-MEL-28, > 100 µM (inactive); with SNB-75, 4.33 µM (inactive); in the experiment on SR it was > 100 µM (inactive).
As to `C[n+]1c(-c2ccc(/C=N/NC(=S)N/N=C/c3ccc(-c4cn5ccsc5[n+]4C)cc3)cc2)cn2ccsc21`, the GI50 with CCRF-CEM is 36.6 µM (inactive); with HCT-15 it was greater than 100 µM; in the experiment on HL-60, > 100 µM (inactive); in the experiment with Hs-578T it was > 100 µM (inactive); in the experiment with MCF7, > 100 µM (inactive); in the experiment on MDA-MB-231, > 100 µM (inactive). Moreover, the GI50 in the experiment on MDA-N is 45.2 µM (inactive); in the experiment on MOLT-4, > 100 µM (inactive); in the experiment on NCI-H460 it was > 100 µM (inactive); in the experiment on NCI/ADR-RES, > 100 µM (inactive); in the experiment with OVCAR-8, > 100 µM (inactive); with PC-3, > 100 µM (inactive). The GI50 in the experiment on SF-539, in the experiment with SK-MEL-28, in the experiment on SK-OV-3, in the experiment on SNB-75, with SR and with T47D was > 100 µM (inactive) throughout.
As to `Cc1cc2c(cc1C)NC(=O)C(NC(=O)/C=C/c1ccccc1)C=N2` (configuration not stated), the GI50 is 37.2 µM (inactive) in the experiment with A498; 3.56 µM (inactive) in the experiment on CCRF-CEM; 17.7 µM with HCT-15; 21.9 µM (inactive) with HL-60; 20.7 µM (inactive) in the experiment on MOLT-4; 30.8 µM (inactive) with NCI-H460. Moreover, the GI50 was 38.2 µM (inactive) with OVCAR-8; 24.8 µM (inactive) with SF-539; 72.3 µM (inactive) in the experiment with SK-MEL-28; 74.8 µM (inactive) in the experiment with SK-OV-3; 44.1 µM (inactive) with SNB-75; 20.8 µM (inactive) in the experiment with SR.
As for `O=C1NCC2(CCN(CC3COc4ccccc4O3)CC2)N1c1ccccc1` (configuration not stated), the GI50 in the experiment on A498 is > 100 µM (inactive); in the experiment with CCRF-CEM, > 100 µM (inactive); in the experiment with HCT-15, greater than 100 µM; with HL-60, 60.3 µM (inactive); in the experiment with Hs-578T, > 100 µM (inactive); in the experiment with MCF7, > 100 µM (inactive). Further, the GI50 was > 100 µM (inactive) with MDA-MB-231; 71.1 µM (inactive) in the experiment with MOLT-4; > 100 µM (inactive) in the experiment on NCI-H460; > 100 µM (inactive) with NCI/ADR-RES; > 100 µM (inactive) with OVCAR-8; > 100 µM (inactive) in the experiment with PC-3. Further, the GI50 in the experiment with SF-539 was > 100 µM (inactive); in the experiment with SK-MEL-28 it was 89.5 µM (inactive); in the experiment on SK-OV-3, > 100 µM (inactive); in the experiment on SNB-75, > 100 µM (inactive); in the experiment on SR, > 100 µM (inactive); with T47D, > 100 µM (inactive).
